Molecules are shown by their SMILES. Structures can show the parent of a compound that is named as a salt.

In assay [1] the target is D2R. Particulars: Figure 1; ref 25 (SB737050), ref 19 (I), ref 26 (PZ-1643), ref 27 (CPPQ); cited from earlier work.
Assay [2] deals with T1, human 5-HT6R (Homo sapiens, UniProt P50406).
T1 construct: expressed in transfected cells
The assay is described as follows: [3H]-LSD radioligand binding assay at 5-HT6R in HEK293 cell membranes. Particulars: HEK293 cells with stable expression of human 5-HT6R, mean of at least three experiments (SEM ≤ 18%). On the procedure:
(§1) The biological evaluation was initiated by assessing the affinity of the compounds for 5-HT6R in the [^3H]-LSD radioligand binding assay. Experiments were performed in a stable HEK293 cell line expressing the human 5-HT6R [10]. […] Experiments were performed in Chinese hamster ovary (CHO) cells with the stable expression of human D3R (Eurofins, Celle-L’Evescault, France).
HEK293 cells with stable expression of human 5-HT6 receptors (prepared with the use of Lipofectamine 2000) were maintained at 37 °C in a humidified atmosphere with 5% CO2 and grown in Dulbecco’s modified Eagle medium containing 10% dialyzed fetal bovine serum and 500 μg/mL G418 sulfate. For membrane preparation, cells were sub-cultured in 150 cm^2 flasks, grown to 90% confluence, washed twice with phosphate buffered saline (PBS), prewarmed to 37 °C, and pelleted by centrifugation (200× g) in PBS containing 0.1 mM EDTA and 1 mM dithiothreitol. Prior to membrane preparation, pellets were stored at −80 °C.
The cell pellets were thawed and homogenized in 10 volumes of assay buffer using an Ultra Turrax tissue homogenizer(IKA, Warsaw, Poland), centrifuged twice at 35,000× g for 15 min at 4 °C, and incubated for 15 min at 37 °C between centrifugation rounds. The composition of the assay buffers was 50 mM Tris HCl, 0.5 mM EDTA, and 4 mM MgCl2. The assays were incubated in a total volume of 200 μL in 96-well microtiter plates for 1 h at 37 °C. The process of equilibration was terminated by rapid filtration through Unifilter plates with a 96-well cell harvester, and radioactivity retained on the filters was quantified on a Microbeta plate reader (PerkinElmer, Waltham, MA, USA). For displacement studies, the assay samples contained as radioligands (PerkinElmer, USA) 2 nM [^3H]-LSD (83.6 Ci/mmol). Nonspecific binding was defined with 10 μM methiothepine. Each compound was tested in triplicate at 7 concentrations (10^−10 to 10^−4 M). The inhibition constants (Ki) were calculated from the Cheng−Prusoff equation [30]. […]

Assay [3] addresses human D3R (Homo sapiens, UniProt P35462). Briefly: D3R screening binding with [3H]-methylspiperone in CHO cells (Eurofins). The note with it: percentage displacement at 10^-6 M; CHO cells with stable expression of human D3R; read-out: %inh Binding to D3R @1μM. On the procedure: as §1
Assay [4] addresses T1, human 5-HT6R. The assay is described as follows: 5-HT6R constitutive activity at Gs signaling in NG108-15 cells (CAMYEL BRET cAMP sensor). In kind it is cell-based. Particulars: NG108-15 cells transiently expressing 5-HT6R; Figure 3. How it is done: The experiments were performed in 1321N1 cells expressing the human serotonin 5-HT6R. […] Neuroblastoma cells (NG108-15) were grown in DMEM (Dulbecco’s modified Eagle’s medium) supplemented with 10% heat-inactivated fetal bovine serum, 2% HAT (hypoxanthine/aminopterin/thymidine, Life technologies), glutamine, and antibiotics at 37 °C under 5% of CO2. cAMP measurement was performed in cells transiently transfected with a construct expressing the CAMYEL bioluminescence resonance energy transfer (BRET) sensor for cAMP [44] (3 μg DNA/million cells) alone or in combination with a plasmid encoding the human 5-HT6R (0.5 μg DNA/million cells). Transfection of the NG108-15 cells was conducted in suspension using Lipofectamine 2000, according to the manufacturer’s protocol. Plasmids and lipofectamine were diluted in Opti-MEM Reduced Serum Media (Gibco) and incubated at room temperature for 20 min before being added to the cells. […] Coelanterazine H (Molecular Probes) was added in each well at a final concentration of 5 μM and incubated at room temperature for 5 min before measuring BRET in a Mithras LB 940 plate reader (Berthold Technologies, Bad Wildbad, Germany). The decrease in CAMYEL BRET induced by the coexpression of the probe with the 5-HT6R as compared to the BRET measured in cells expressing the probe alone was used as an index of the 5-HT6R constitutive activity.

Assay [5] addresses T2, human serotonin 5-HT6R (Homo sapiens, UniProt P50406).
T2 construct: host or cells: 1321N1 (frozen recombinant cells)
The assay is described as follows: cAMP cellular assay, inhibition of 5-CT-induced cAMP production in 1321N1 cells. It is filed as cell-based. Particulars: 1321N1 cells expressing human 5-HT6R; cAMP production induced by 5-CT (1000 nM); read-out: Kb, antagonist properties at 5-HT6R. On the procedure:
The experiments were performed in 1321N1 cells expressing the human serotonin 5-HT6R.
The functional properties of compounds on 5-HT6R were evaluated using its ability to inhibit cAMP production induced by 5-CT (1000 nM), a 5-HT6R agonist. The compound was tested in triplicate at 8 concentrations (10^−11 to 10^−4 M). The level of adenylyl cyclase activity was measured using frozen recombinant 1321N1 cells expressing the human serotonin 5-HT6R (PerkinElmer). Total cAMP was measured using the LANCE cAMP detection kit (PerkinElmer), according to the manufacturer’s directions. For quantification of cAMP levels, cells (5 μL) were incubated with a mixture of compounds (5 μL) for 30 min at room temperature in 384-well white opaque microtiter plates. After incubation, the reaction was stopped, and cells were lysed by the addition of 10 μL of working solution (5 μL of Eu-cAMP and 5 μL of ULight-anti-cAMP). The assay plate was incubated for 1 h at room temperature. Time-resolved fluorescence resonance energy transfer (TR-FRET) was detected by an Infinite M1000 Pro (Tecan, Männedorf, Switzerland) using instrument settings from LANCE cAMP detection kit manual(PerkinElmer, Waltham, MA, USA).

The target of assay [6] is D3R. Also on record: method as in earlier work. The note with it: Figure 1; ref 25 (SB737050), ref 19 (I), ref 26 (PZ-1643); cited from earlier work.
Assay [7] has as its target 5-HT6R. The note with it: Figure 1; ref 25 (SB737050), ref 19 (I), ref 26 (PZ-1643), ref 27 (CPPQ); cited from earlier work.

T1 sequence (P50406 whole entry): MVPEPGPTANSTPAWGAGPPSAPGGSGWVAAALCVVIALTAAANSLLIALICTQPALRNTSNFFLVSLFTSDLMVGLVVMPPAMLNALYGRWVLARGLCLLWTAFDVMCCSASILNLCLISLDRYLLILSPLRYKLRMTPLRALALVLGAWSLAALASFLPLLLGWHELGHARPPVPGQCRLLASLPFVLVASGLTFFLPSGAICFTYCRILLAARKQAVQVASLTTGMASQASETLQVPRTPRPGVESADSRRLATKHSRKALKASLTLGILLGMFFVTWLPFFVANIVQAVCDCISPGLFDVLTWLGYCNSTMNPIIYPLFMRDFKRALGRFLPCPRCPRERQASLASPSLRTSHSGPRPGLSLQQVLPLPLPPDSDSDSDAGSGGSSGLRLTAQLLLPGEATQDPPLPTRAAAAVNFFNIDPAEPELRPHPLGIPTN
Chain of human D3R (P35462 whole entry): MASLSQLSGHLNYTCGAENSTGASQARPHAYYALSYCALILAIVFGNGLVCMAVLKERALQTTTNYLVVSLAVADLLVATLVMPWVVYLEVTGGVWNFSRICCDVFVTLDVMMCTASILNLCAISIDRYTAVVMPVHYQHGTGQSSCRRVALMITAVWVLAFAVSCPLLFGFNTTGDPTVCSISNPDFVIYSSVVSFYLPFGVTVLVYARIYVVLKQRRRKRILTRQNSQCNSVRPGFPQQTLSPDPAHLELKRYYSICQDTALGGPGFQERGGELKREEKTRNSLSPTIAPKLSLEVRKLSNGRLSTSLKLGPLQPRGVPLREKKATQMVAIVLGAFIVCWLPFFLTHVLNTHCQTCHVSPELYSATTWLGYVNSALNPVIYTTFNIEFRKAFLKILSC
T2 sequence (P50406 whole entry): as the sequence (P50406 whole entry) above

Take `O=S(=O)(c1cccc(Cl)c1)n1ccc2c(N[C@H]3CCNC3)nc3ccccc3c21` [CPPQ, (S)-1-((3-chlorophenyl)sulfonyl)-N-(pyrrolidin-3-yl)-1H-pyrrolo[3,2-c]quinolin-4-amine]: the “pKi D2R” value in assay [1] is on record as 6.0.
Molecule `C[C@H](O)CN1CC[C@H](Nc2nc3ccccc3c3c2ccn3S(=O)(=O)c2cccc(Cl)c2)C1` [Compound 8, (S)-1-((S)-3-((1-((3-chlorophenyl)sulfonyl)-1H-pyrrolo[3,2-c]quinolin-4-yl)amino)pyrrolidin-1-yl)propan-2-ol] gave a Ki in assay [2] of 0.011 µM.
In turn, `C[C@@H](O)CN1CC[C@H](Nc2nc3ccccc3c3c2ccn3S(=O)(=O)c2cccc(Cl)c2)C1` [Compound 9, (R)-1-((S)-3-((1-((3-chlorophenyl)sulfonyl)-1H-pyrrolo[3,2-c]quinolin-4-yl)amino)pyrrolidin-1-yl)propan-2-ol] gave a Ki in assay [2] of 0.006 µM. The inhibition at 1 µM in assay [3] turned out to be 54%.
`O=S(=O)(c1cccc(Cl)c1)n1ccc2c(N[C@H]3CCN(CCO)C3)nc3ccccc3c21` [Compound 10, (S)-2-(3-((1-((3-chlorophenyl)sulfonyl)-1H-pyrrolo[3,2-c]quinolin-4-yl)amino)pyrrolidin-1-yl)ethan-1-ol]: in assay [2], the inhibition constant Ki worked out at 0.084 µM.
With `COCCCN1CC[C@H](Nc2nc3ccccc3c3c2ccn3S(=O)(=O)c2cccc(Cl)c2)C1` [Compound 11, (S)-1-((3-chlorophenyl)sulfonyl)-N-(1-(3-methoxypropyl)pyrrolidin-3-yl)-1H-pyrrolo[3,2-c]quinolin-4-amine], affinity in assay [2] was put at a Ki of 0.017 µM. In assay [3], the inhibition at 1 µM worked out at 25%.
Turning to `O=S(=O)(c1cccc(Cl)c1)n1ccc2c(N[C@H]3CCN(CCC(F)(F)F)C3)nc3ccccc3c21` [Compound 12, (S)-1-((3-chlorophenyl)sulfonyl)-N-(1-(3,3,3-trifluoropropyl)pyrrolidin-3-yl)-1H-pyrrolo[3,2-c]quinolin-4-amine], the Ki in assay [2] is 0.556 µM.
For the molecule `CCN1CCC[C@@H]1CNc1nc2ccccc2c2c1ccn2S(=O)(=O)c1cccc(Cl)c1.Cl` [Compound 13, (R)-1-((3-chlorophenyl)sulfonyl)-N-((1-ethylpyrrolidin-2-yl)methyl)-1H-pyrrolo[3,2-c]quinolin-4-amine hydrochloride], in assay [2], the Ki was 0.027 µM. Besides, the “Impact on 5-HT6R-operated Gs signaling (constitutive activity)” value in assay [4] is recorded as “neutral antagonist”. In addition, the antagonist equilibrium constant (Kb) in assay [5] is 0.0012 µM. Besides, the inhibition at 1 µM in assay [3] amounted to 58%.
`CCN1CCC[C@H]1CNc1nc2ccccc2c2c1ccn2S(=O)(=O)c1cccc(Cl)c1` [Compound 14, (S)-1-((3-chlorophenyl)sulfonyl)-N-((1-ethylpyrrolidin-2-yl)methyl)-1H-pyrrolo[3,2-c]quinolin-4-amine hydrochloride]: in assay [2], the Ki came out at 0.072 µM.
Same read-out and setting: the same measure for `CCN1CC[C@H](CNc2nc3ccccc3c3c2ccn3S(=O)(=O)c2cccc(Cl)c2)C1` [Compound 15, (R)-1-((3-chlorophenyl)sulfonyl)-N-((1-ethylpyrrolidin-3-yl)methyl)-1H-pyrrolo[3,2-c]quinolin-4-amine hydrochloride]: 0.038 µM.
Molecule `CCN1CC[C@@H](CNc2nc3ccccc3c3c2ccn3S(=O)(=O)c2cccc(Cl)c2)C1` [Compound 16, (S)-1-((3-chlorophenyl)sulfonyl)-N-((1-ethylpyrrolidin-3-yl)methyl)-1H-pyrrolo[3,2-c]quinolin-4-amine hydrochloride] yielded a Ki in assay [2] of 0.064 µM.
Take `CC(C)CN1CCC[C@@H]1CNc1nc2ccccc2c2c1ccn2S(=O)(=O)c1cccc(Cl)c1.Cl` [Compound 17, (R)-1-((3-chlorophenyl)sulfonyl)-N-((1-isobutylpyrrolidin-2-yl)methyl)-1H-pyrrolo[3,2-c]quinolin-4-amine hydrochloride]: the Ki in assay [2] stood at 0.027 µM. The “Impact on 5-HT6R-operated Gs signaling (constitutive activity)” value in assay [4] is “neutral antagonist”. Besides, in assay [5], the Kb was found to be 0.0038 µM. The inhibition at 1 µM in assay [3] was determined as 57%.
On to `CC(C)CN1CCC[C@H]1CNc1nc2ccccc2c2c1ccn2S(=O)(=O)c1cccc(Cl)c1` [Compound 18, (S)-1-((3-chlorophenyl)sulfonyl)-N-((1-isobutylpyrrolidin-2-yl)methyl)-1H-pyrrolo[3,2-c]quinolin-4-amine hydrochloride], for which, in assay [2], the Ki came out at 0.065 µM.
Turning to `O=S(=O)(c1cccc(Cl)c1)n1ccc2c(NC[C@H]3CCCN3CCO)nc3ccccc3c21` [Compound 19, (R)-2-(2-(((1-((3-chlorophenyl)sulfonyl)-1H-pyrrolo[3,2-c]quinolin-4 yl)amino)methyl)-pyrrolidin-1-yl)ethan-1-ol hydrochloride], affinity in assay [2] was put at a Ki of 0.058 µM.
As to `O=S(=O)(c1cccc(Cl)c1)n1ccc2c(NC[C@@H]3CCCN3CCO)nc3ccccc3c21` [Compound 20, (S)-2-(2-(((1-((3-chlorophenyl)sulfonyl)-1H-pyrrolo[3,2-c]quinolin-4 yl)amino)methyl)pyrrolidin-1-yl)ethan-1-ol hydrochloride], the affinity in assay [2] corresponds to a Ki of 0.077 µM.
Same read-out and setting: under `COCCCN1CCC[C@@H]1CNc1nc2ccccc2c2c1ccn2S(=O)(=O)c1cccc(Cl)c1` [Compound 21, (R)-1-((3-chlorophenyl)sulfonyl)-N-((1-(3-methoxypropyl)pyrrolidin-2-yl)methyl)-1H-pyrrolo[3,2-c]quinolin-4-amine] stands 0.087 µM.
On to `CN1Cc2c(ccc3c2ccn3S(=O)(=O)c2c(Cl)nc3sccn23)CC1CCO` (centres unmarked) [I], for which, in assay [6], the “pKi D3R” value is 9.0. Further, the “pKi D2R” value in assay [1] is on record as 7.4. Moreover, the “pKi 5-HT6R” value in assay [7] is on record as 8.7.
Consider `COc1cc2c(cc1NS(=O)(=O)c1ccc(-c3cccs3)cc1)CCN(C)CC2` [SB737050], for which, in assay [6], the “pKi D3R” value is recorded as 7.9. In assay [1], the “pKi D2R” value is 7.7. In addition, in assay [7], the “pKi 5-HT6R” value was 9.0.

Source of the values: article PMC9920808, “Impact of the Substitution Pattern at the Basic Center and Geometry of the Amine Fragment on 5-HT6 and D3R Affinity in the 1H-Pyrrolo[3,2-c]quinoline Series” (Molecules, 2023).
